What was measured:
CSF cGMP [1] = test: Multiple ascending dose study: CSF cGMP; format: in vivo, human
Protocol: Four sequential cohorts of healthy participants (≥50 years and ≤85 years old) were treated with multiple ascending doses of Compound A up to the maximum tolerated dose (MTD). A total of 6 participants per cohort were randomized to Compound A. Proposed doses of Compound A were:
Compound A was administered orally with 240 milliliter (mL) (8 fluid ounces) of water. […]

CSF cGMP [2] = test: Single dose clinical study Part B: CSF cGMP pharmacodynamics; format: in vivo, human; conditions: for CSF cGMP Amax Mean (SD) / CSF cGMP TAmax Median / CSF cGMP ΔAUAC(0-30 h) Mean (SD): healthy adults Part B, fasted
Protocol: After the Screening Period, subjects returned to the clinic on […] for Baseline procedures. […] Serial CSF sampling via the lumbar catheter commenced on Day 1, after an overnight fast. CSF samples were collected on Day 1 over a period of 3 hours predose. Subjects were then administered study drug, and serial CSF sampling for 30 hours postdose was performed to determine CSF cGMP and CSF Compound A concentrations. Blood samples for plasma Compound A PK were collected at the same time points as CSF sampling. Safety evaluations were also performed.
Serial CSF samples were collected from the lumbar catheter for analysis of concentrations of cyclic […] monophosphate (cGMP) at −3, −2, −1 hours, predose (0 hour), and postdose at 1, 2, 3, 4, 5, 6, 8, 10, 12, 14, 16, 18, 24, and 30 hours.
Plasma, urine and CSF concentrations of Compound A were measured using validated liquid chromatography mass spectrometry/mass spectrometry (LC MS/MS) assay methods. CSF concentrations of cGMP were measured using a validated LC-MS/MS assay method.
The primary PD measure was CSF cGMP. The following PD parameters were reported for CSF cGMP:
Plasma Compound A concentrations pooled from all cohorts of the study were subjected to population PK analysis using nonlinear mixed effects modelling. The effect of covariates, such as baseline demographics/characteristics (eg, body weight, age, gender, ethnicity, etc) on the PK of Compound A were explored. The individual posterior estimates of PK parameters were then used to generate individual PK profiles of Compound A, which were used in subsequent PK/PD analysis of the percent change from baseline in CSF cGMP concentrations.

[3] = Day 13, 5 mg QD oral, Parts A and D
[4] = Day 13, 10 mg QD oral, Parts A and D
[5] = Day 13, 25 mg QD oral, Parts A and D
[6] = Day 13, 50 mg QD oral, Parts A and D
[7] = Day 13, 100 mg QD oral, Parts A and D
[8] = Day 13, 200 mg QD oral, Parts A and D
[9] = Day 13, 400 mg QD oral Non-Japanese, Parts A and D

SMILES: COc1ncc(C)c(-c2ccc3c(c2)[nH]c(=O)c2cnn([C@H]4CCOC4)c23)c1C [Compound A, (S)-7-(2-methoxy-3,5-dimethylpyridin-4-yl)-1-(tetrahydrofuran-3-yl)-1H-pyrazolo[4,3-c]quin olin-4(5H)-one]
- CSF cGMP % Change from Baseline Mean (CSF cGMP [1]; [3]): 33.162%
- CSF cGMP % Change from Baseline Median (CSF cGMP [1]; [3]): 29.954%
- CSF cGMP Change from Baseline Mean (CSF cGMP [1]; [3]): 0.491 µg/L
- CSF cGMP Change from Baseline Median (CSF cGMP [1]; [3]): 0.350 µg/L
- CSF cGMP Mean (CSF cGMP [1]; [3]): 1.964 µg/L
- CSF cGMP Median (CSF cGMP [1]; [3]): 1.730 µg/L
- CSF cGMP % Change from Baseline Mean (CSF cGMP [1]; [4]): 94.222%
- CSF cGMP % Change from Baseline Median (CSF cGMP [1]; [4]): 104.348%
- CSF cGMP Change from Baseline Mean (CSF cGMP [1]; [4]): 1.276 µg/L
- CSF cGMP Change from Baseline Median (CSF cGMP [1]; [4]): 1.390 µg/L
- CSF cGMP Mean (CSF cGMP [1]; [4]): 2.704 µg/L
- CSF cGMP Median (CSF cGMP [1]; [4]): 2.620 µg/L
- CSF cGMP % Change from Baseline Mean (CSF cGMP [1]; [5]): 170.369%
- CSF cGMP % Change from Baseline Median (CSF cGMP [1]; [5]): 183.494%
- CSF cGMP Change from Baseline Mean (CSF cGMP [1]; [5]): 2.058 µg/L
- CSF cGMP Change from Baseline Median (CSF cGMP [1]; [5]): 1.979 µg/L
- CSF cGMP Mean (CSF cGMP [1]; [5]): 3.283 µg/L
- CSF cGMP Median (CSF cGMP [1]; [5]): 3.225 µg/L
- CSF cGMP % Change from Baseline Mean (CSF cGMP [1]; [6]): 191.445%
- CSF cGMP % Change from Baseline Median (CSF cGMP [1]; [6]): 189.244%
- CSF cGMP Change from Baseline Mean (CSF cGMP [1]; [6]): 3.750 µg/L
- CSF cGMP Change from Baseline Median (CSF cGMP [1]; [6]): 3.260 µg/L
- CSF cGMP Mean (CSF cGMP [1]; [6]): 5.778 µg/L
- CSF cGMP Median (CSF cGMP [1]; [6]): 4.870 µg/L
- CSF cGMP % Change from Baseline Mean (CSF cGMP [1]; [7]): 260.350%
- CSF cGMP % Change from Baseline Median (CSF cGMP [1]; [7]): 258.784%
- CSF cGMP Change from Baseline Mean (CSF cGMP [1]; [7]): 4.352 µg/L
- CSF cGMP Change from Baseline Median (CSF cGMP [1]; [7]): 3.960 µg/L
- CSF cGMP Mean (CSF cGMP [1]; [7]): 6.066 µg/L
- CSF cGMP Median (CSF cGMP [1]; [7]): 5.420 µg/L
- CSF cGMP % Change from Baseline Mean (CSF cGMP [1]; [8]): 201.165%
- CSF cGMP % Change from Baseline Median (CSF cGMP [1]; [8]): 192.932%
- CSF cGMP Change from Baseline Mean (CSF cGMP [1]; [8]): 3.810 µg/L
- CSF cGMP Change from Baseline Median (CSF cGMP [1]; [8]): 3.755 µg/L
- CSF cGMP Mean (CSF cGMP [1]; [8]): 5.702 µg/L
- CSF cGMP Median (CSF cGMP [1]; [8]): 5.640 µg/L
- CSF cGMP % Change from Baseline Mean (CSF cGMP [1]; [9]): 198.283%
- CSF cGMP % Change from Baseline Median (CSF cGMP [1]; [9]): 191.646%
- CSF cGMP Change from Baseline Mean (CSF cGMP [1]; [9]): 3.302 µg/L
- CSF cGMP Change from Baseline Median (CSF cGMP [1]; [9]): 2.920 µg/L
- CSF cGMP Mean (CSF cGMP [1]; [9]): 4.945 µg/L
- CSF cGMP Median (CSF cGMP [1]; [9]): 4.370 µg/L
- CSF cGMP % Change from Baseline Mean (CSF cGMP [1]; Part C, 50 mg, Day 13): 229.107%
- CSF cGMP % Change from Baseline Median (CSF cGMP [1]; Part C, 50 mg, Day 13): 218.491%
- CSF cGMP Change from Baseline Mean (CSF cGMP [1]; Part C, 50 mg, Day 13): 3.206 µg/L
- CSF cGMP Change from Baseline Median (CSF cGMP [1]; Part C, 50 mg, Day 13): 3.065 µg/L
- CSF cGMP Mean (CSF cGMP [1]; Part C, 50 mg, Day 13): 4.620 µg/L
- CSF cGMP Median (CSF cGMP [1]; Part C, 50 mg, Day 13): 4.265 µg/L
- CSF cGMP % Change from Baseline Mean (CSF cGMP [1]; Part C, 50 mg, Day 41): 222.283%
- CSF cGMP % Change from Baseline Median (CSF cGMP [1]; Part C, 50 mg, Day 41): 182.044%
- CSF cGMP Change from Baseline Mean (CSF cGMP [1]; Part C, 50 mg, Day 41): 3.097 µg/L
- CSF cGMP Change from Baseline Median (CSF cGMP [1]; Part C, 50 mg, Day 41): 2.975 µg/L
- CSF cGMP Mean (CSF cGMP [1]; Part C, 50 mg, Day 41): 4.511 µg/L
- CSF cGMP Median (CSF cGMP [1]; Part C, 50 mg, Day 41): 4.650 µg/L
- sustained CSF cGMP increase from baseline predicted from PK/PD modeling (CSF cGMP [2]; 100 mg administered to steady state): approximately 200%
- CSF cGMP Amax Mean (SD) (CSF cGMP [2]; single oral 50 mg): 367 (92.6) %
- CSF cGMP TAmax Median (CSF cGMP [2]; single oral 50 mg): 7.87 h
- CSF cGMP ΔAUAC(0-30 h) Mean (SD) (CSF cGMP [2]; single oral 50 mg): 117 (51.7) %
- CSF cGMP Amax Mean (SD) (CSF cGMP [2]; single oral 75 mg): 461 (86.3) %
- CSF cGMP TAmax Median (CSF cGMP [2]; single oral 75 mg): 5.87 h
- CSF cGMP ΔAUAC(0-30 h) Mean (SD) (CSF cGMP [2]; single oral 75 mg): 166 (9.61) %
- CSF cGMP Amax Mean (SD) (CSF cGMP [2]; single oral 100 mg): 293 (67.8) %
- CSF cGMP TAmax Median (CSF cGMP [2]; single oral 100 mg): 5.87 h
- CSF cGMP ΔAUAC(0-30 h) Mean (SD) (CSF cGMP [2]; single oral 100 mg): 87.0 (33.9) %
- CSF cGMP Amax Mean (SD) (CSF cGMP [2]; single oral 200 mg): 424 (127) %
- CSF cGMP TAmax Median (CSF cGMP [2]; single oral 200 mg): 5.37 h
- CSF cGMP ΔAUAC(0-30 h) Mean (SD) (CSF cGMP [2]; single oral 200 mg): 176 (89.5) %
- CSF cGMP Amax Mean (SD) (CSF cGMP [2]; single oral 400 mg): 420 (123) %
- CSF cGMP TAmax Median (CSF cGMP [2]; single oral 400 mg): 12.9 h
- CSF cGMP ΔAUAC(0-30 h) Mean (SD) (CSF cGMP [2]; single oral 400 mg): 214 (82.3) %

— patent publication US20220378706A1, “PHARMACEUTICAL COMPOSITION COMPRISING PDE9 INHIBITOR” (Eisai R&D Management Co., Ltd., priority 2017, published 2022)
